Earlier results on two molecules are cited in patent US20040253327A1, “Compositions and methods for reducing or controlling blood cholesterol, lipoproteins, triglycerides, and sugar and preventing or treating cardiovascular diseases” (priority 2003, published 2004).

For data set [1] the following is noted: human, in vivo.

On to `CN(C)C(=N)N=C(N)N` [metformin], for which, in data set [1], the “patients developing gastrointestinal complaints” value was “Up to 30%”; the “reduction of blood triglyceride and LDL cholesterol levels” value is “about 10%”.

Take chromium picolinate: where the note is “after 2 months of supplementation (vs. 161 mg/dl)”, the triglyceride level is 133 mg/dL. The “reduction in triglyceride levels” value (supplementation for 2 months, P<0.05) is recorded as 17.4%.
